Results on one compound are retold here after US20070219208A1, “Methods for Treating Cancer” (priority 2006, published 2007).

Holding throughout (assay type): cell-based
The subject of experiment [1] is MCF-7 cells. In words: 3H-thymidine uptake (DNA synthesis / cell proliferation). To be noted: mevalonate 20 μM with simvastatin or fluvastatin. The method, then:
Thymidine Uptake Studies:
DNA synthesis was measured by monitoring the uptake of tritiated thymidine, [^3H]TdR (Perkin-Elmer, Boston, Mass.). Cells (5×10^5/ml) were cultured with different concentrations of simvastatin or fluvastatin (0-10 μM) in the presence or absence of mevalonate (20 μM), 1400 W, or sepiapterin. Cells were pulse-chased with [^3H]TdR [0.5 μCi (0.185 MBq)/well during the last 3 h of a 24 h culture, harvested onto glass filters with an automatic cell harvester (Cambridge Technology, Cambridge, Mass.), and counted using the LKB Betaplate scintillation counter (Wallac, Gaithersburg, Md.). All experiments were performed in triplicate and repeated three times.

The test system of experiment [2] is arginase II in MCF-7 cells. Briefly: Arginase II transcript levels by RT-PCR. As to conditions: mevalonate 20 μM. The method, then: Following the treatments, medium was aspirated and 1 ml of TRIzol reagent (Invitrogen) was added and total RNA was extracted using the manufacturer's protocol. Five μg of RNA was used for the first strand cDNA synthesis using a first strand cDNA synthesis kit (Amersham Biosciences). Four μl of the cDNA mixture was used to amplify mRNA's of iNOS [(5′-[…]-3′, SEQ ID NO:1) and (5′-[…]-3′, SEQ ID NO:2)], arginase I [(5′-[…]-3′, SEQ ID NO:3) and (5′-[…]-3′, SEQ ID NO:4)], arginase II [(5′-[…]-3′, SEQ ID NO:5) and (5′-[…]-3′, SEQ ID NO:6)], and eNOS [(5′-[…]-3′, SEQ ID NO:7) and (5′-[…]-3′, SEQ ID NO:8)].

Experiment [3] concerns MCF-7 cells. Briefly: Cell cycle analysis by flow cytometry. To be noted: 1400 W 10 μM, mevalonate 20 μM. The method, then: For DNA content analysis, harvested cells were centrifuged at 1,000×g for 5 min, fixed by the gradual addition of ice-cold 70% ethanol, and washed with PBS. Cells were then treated with RNase (10 μg/mL) for 30 min at 37° C., washed once with PBS, and resuspended and stained in 1 mL of 69 μmol/L propidium iodide in 38 mmol/L sodium citrate for 30 min at room temperature. The cell cycle phase distribution was determined by analytic DNA flow cytometry as described in (Vindelov L, et al. Methods Cell Biol, 33:127-37, 1990). The percentage of cells in each phase of the cell cycle was analyzed using a Modfit software (Verity Software House, Topsham, Me.).
As NO has previously been reported to exert tumor cell cycle alterations (Pervin S, et al. Natl Acad Sci USA 98:3583-3588, 2001), we investigated the cytostatic effect of statins in MCF-7 cells. MCF-7 cells were treated with simvastatin and fluvastatin for […] in the presence and absence of 1400 W (10 μM) and mevalonate (20 μM). Cell cycle progression was examined using FACScan flow cytometry analysis. […] As cell cycle progression from […] involves activations of the cell regulatory proteins, cyclins D and E, we investigated the effects of statins and iNOS inhibitor on the cell cycle proteins. […]

Experiment [4] deals with MCF-7 cells. Briefly: Soft agar assay for colony formation (anchorage-independent growth). To be noted: 1400 W 10 μM or mevalonate 20 μM with statin 10 μM. The method, then: Soft Agar Assay for Colony Formation:
After cells were treated with various conditions, they were seeded in six-well plates. The plates were first covered with phenol red-free MEM containing 0.6% agar and 10% FBS. The middle layer contained cells (5×10^3) in phenol red-free MEM with 0.35% agar and 10% FBS. The top layer, consisting of the medium, was added to prevent drying of the agar in the plates. The plates were incubated for 21 days, after which the plates were stained in 0.5 ml of 0.005% crystal violet for 1 h and the cultures were inspected and photographed. The colony efficiency (CE) was determined by a count of the number of colonies greater than […] in diameter, which was calculated as the average of colonies counted at 50× magnification in five individual fields manually (Liu S, et al. Oncogene, 23:1256-62, 2004).
The long-term effects of statins and the inhibitors on the proliferation and survival of MCF-7 cells were determined using clonogenic assays (Ramanathan B, et al. Cancer Res, 65:8455-60, 2005). The extent of malignancy of cells corresponds to the attainment of anchorage-independent growth (Liu S, et al. Oncogene, 23:1256-62, 2004). MCF-7 cells were treated with simvastatin or fluvastatin in the presence or absence of either 1400 W or mevalonate or sepiapterin. In separate experiments, cells were treated with either GGTI-298 or FTI-277. At the end of the treatments, approximately 5×10^3 cells were seeded onto a soft agar to determine their clonogenic efficiency after 21 days. […] In the presence of either 1400 W or mevalonate, the colony formation was restored in statin-treated cells (FIG. 6B).

As for `CC(O)(CCO)CC(=O)O` (stereo not shown) [mevalonate], the “effect on statin inhibition of 3H-thymidine uptake” value with MCF-7 cells [1] is recorded as “partially reversed”. Moreover, the “effect on statin-induced down-regulation of Arg II level” value in experiment [2] is listed as “reversed”. Further, the “effect on statin-induced cell cycle alterations” value with MCF-7 cells [3] was “almost completely reversed”. In the experiment with MCF-7 cells [4], the “colony formation in statin-treated cells in the presence of modulator” value is on record as “restored”.
